{
  "source": "patent US11573241B2",
  "about": "“Total cellular iron as a marker of cancer stem cells and uses thereof” (Institut National de la Sante et de la Recherche Medicale …, priority 2016, dated 2023)",
  "molecules": {"B1": {"name": "OSM: cytokine oncostatin M, implicated in inducing EMT (protein, UniProt P13725 26-221, looked up)", "Oncostatin-M": "AAIGSCSKEYRVLLGQLQKQTDLMQDTSRLLDPYIRIQGLDVPKLREHCRERPGAFPSEETLRGLGRRGFLQTLNATLGCVLHRLADLEQRLPKAQDLERSGLNIEDLEKLQMARPNILGLRNNIYCMAQLLDNSDTAEPTKAGRGASQPPTPTPASDAFQRKLEGCRFLHGYHRFMHSVGRVFSKWGESPNRSRR"}},
  "key": {"[1]": {"system": "HMLER cells", "assay": "Flow cytometry of CD44 and CD24 expression after TGF beta", "format": "cell-based, human", "description": "FIG. 11. […] Briefly, HMLER cells were treated as indicated with TGF beta in the presence or absence of transferrin. CD44 and CD24 expression were assessed by flow cytometry. CD44^+ indicates the percent of CD44^high/CD24^Low/− population gated."}, "[2]": {"system": "HMLER CD24^low cells", "assay": "Immunoblotting of iron homeostasis regulatory proteins", "format": "cell-based, human", "conditions": "24 h"}, "[3]": {"system": "iCSCL-10A2 cells", "assay": "Annexin V/PI assay", "format": "cell-based", "conditions": "Sal or AM5 0.5 μM, 72 h", "description": "(§1) Annexin V/PI assay. Cells were treated as indicated. After treatment, cell death was quantified using Annexin V-FITC/Propidium Iodide (PI) assay according to the manufacturer's protocol (FITC Annexin V Apoptosis Detection Kit II, 556570, BD Pharmingen™) and analyzed by a LSRFortessa™ flow cytometer (BD Bioscience, San Jose, Calif.). The data were processed using Cell Quest software (BD Biosciences)."}, "[4]": {"system": "HMLER CD24^low cells", "assay": "Annexin V/PI assay", "format": "cell-based, human", "conditions": "48 h", "description": "as §1"}, "[5]": {"system": "patient-derived xenografts (PDX 1 and 2)", "format": "in vivo, NOD/SCID mice", "conditions": "intra-peritoneal, 4 weeks", "source_text": "Patient derived xenografts (PDXs). PDXs were established as previously described in Charafe-Jauffret et al., Cancer Res. 73, 7290-7300 (2013) from tissue samples collected prospectively at the Institut Paoli-Calmettes (IPC). Samples of human origin and associated data were obtained from the IPC/CRCM Tumor Bank that operates under authorization #AC-2007-33 granted by the French Ministry of Higher Education and Research. Before scientific use of samples and data, patients were appropriately informed and asked to consent in writing, in compliance with French and European regulations. The project was approved by the IPC Institutional Review Board. Cells from 2 different patient-derived xenografts (PDX 1 and 2) were transplanted orthotopically into fat pads of 4-week-old female non-obese diabetic/severe combined immunodeficient (NOD/SCID) mice (NOD.CB17-Prkdcscid/J, Charles River France) after mechanical treatment and enzymatic digestion using collagenase/hyaluronidase (StemCell Technologies) to generate single-cell suspension suitable for implantation in vivo. PDXs were primarily established as previously described in Caraft-Jauffret et al., and evaluated for ALDEFLUOR-positive CSCs. We injected single cancer cells into fat pads of NOD/SCID mice and monitored tumor growth. When tumor size reached approximately 150 mm^3, Sal and AM5 treatments were performed as indicated above for FIGS. 14 and 15. Tumor growth was compared with that of docetaxel and placebo-treated controls. After 4 weeks of treatment, the animals were sacrificed and the proportion of ALDEFLUOR-positive CSCs was measured in each residual tumor. All animal studies were approved by the French Ministry of Higher Education and Research (authorization number D130554) and ethical committee (number 14), of Aix-Marseille Université. No randomization was used and experimenters were blinded to drug treatments and tissue analyses.\nAldefluor assay. The analysis was processed on single-cell suspension from the PDXs obtained as described above. The ALDEFLUOR Kit (Stemcell™ Technologies) was used to isolate the population with high aldehyde dehydrogenase enzymatic activity using an LSR2 cytometer (Becton Dickinson Biosciences), as previously described in Charafe-Jauffret et al. To eliminate cells of mouse origin from the PDXs, we used staining with an anti-H2Kd antibody (BD Biosciences, 1:200, 20 min on ice) followed by staining with a secondary antibody labeled with phycoerythrin (PE; Jackson Laboratories, 1:250, 20 min on ice)."}, "[6]": {"system": "cells from treated PDX 1 and 2", "assay": "Limiting dilution assay, tumor-seeding capacity (ELDA)", "format": "in vivo, NOD/SCID mice", "conditions": "re-implantation into secondary mice", "source_text": "Limiting dilution assay. Cells from 4-week treated mice were re-implanted into one to four secondary NOD/SCID mice with injection of 10, 50, 500 or 5000 cells for each treated tumor to functionally evaluate the proportion of residual CSCs in each treatment group (Unt., Doc, Sal, AM5) for the PDX 1 and 2. Each mouse that developed a tumor reaching a size of 10 mm was considered as a tumor-bearing mouse.\nEstimation of number of CSCs in vivo. The number of mammary gland outgrowths obtained in a fat pad after cell re-implantation is currently used to evaluate the number of stem cells able to repopulate this fat pad. It is based on self-renewal and differentiation abilities, two hallmarks of stem cells. In the same manner, estimation of the number of CSCs can be obtained from tumor outgrowth data collected after limited dilution re-implantation of each group of treatments, based on tumor-initiating capacities of CSCs. For calculation, an online tool is available using Extreme Limiting Dilution Analysis (ELDA) (http://bioinf.wehi.edu.au/software/elda/) for limiting dilution analysis based on the Poisson single-hit model according to the number of outgrowths observed and the number of pat pad re-implanted for each cell dilution."}, "[7]": {"system": "MCF-7 cells", "assay": "Immunoblotting of EMT markers and ferritin after OSM", "format": "cell-based, human", "conditions": "OSM 100 ng/ml", "description": "FIG. 7. Knock down of ferritin expression interferes with the OSM-mediated induction of EMT in MCF-7 cells. left, Immunoblotting showing levels of EMT markers in MCF-7 cells treated or not with 100 ng/ml of OSM for 72 h. right Immunoblotting showing levels of ferritin and fibronectin proteins in MCF-7 cells transfected with siRNA control (scramble) or siRNA targeting specifically ferritin mRNA (FTH1) during 48 h and then the cells were incubated with OSM (100 ng/ml) for 48 h. Beta-tubulin is used as loading control. MCF-7 were transfected.\nImmunoblotting. Cells were treated as indicated, then washed twice with PBS and lysed with 2× Laemmli buffer. Cell extracts were heated at 95° C. for 5 min, sheared through a 26-gauge needle and quantified with a Nanodrop 2000 (Thermo Scientific). Protein lysates (˜100 μg) were resolved by SDS-PAGE electrophoresis and transferred onto PVDF membranes (Amersham). Membranes were blocked with 5% BSA, 0.1% Tween-20/TBS for 1 h. The blots were then probed with the relevant primary antibodies in 5% BSA, 0.1% Tween-20/TBS at 4° C. overnight with gentle agitation. Membranes were washed with 0.1% Tween-20/TBS for 30 min and were incubated with secondary antibodies for 1 h at RT. Antigens were detected by ECL (Amersham). Imaging was performed using a ChemiDoc™ XRS+ System (Biorad)."}, "[8]": {"system": "MCF-7 cells", "assay": "Flow cytometry of CD44 and CD24 expression after OSM", "format": "cell-based, human", "conditions": "OSM 100 ng/ml, 48 h", "description": "FIG. 8. Knock down of ferritin expression interferes with the OSM-mediated induction of CD44^highCD24^low/− in MCF-7 cells. MCF-7 were transfected with siRNA control or siRNA specifically targeting ferritin mRNA (FTH1) during 48 h and then the cells were incubated with OSM (100 ng/ml) for 48 h. a. Analysis of CD44 and CD24 expression by flow cytometry. Left panel, CSC indicates the percent of CD44^high/CD24^Low or negative (Low/−) population gated. Right panels, histogram representations of CD44 or CD24 expression (dark grey), or by the isotype control (light grey). b. Graphs representing the percent mean of CD44^high/CD24^Low/− population gated. c. Graphs representing the mean fluorescence intensity (IF) of CD24 and CD44, respectively. d. Quantification of the ALDH+ population in MCF-7 cells treated as indicated above, and measured by flow cytometry. Bars and error bars correspond to mean values and s.d. of two biological replicates, respectively. **P<0.01, ns, not significant, Student's t-test.\nSmall interfering RNA transfection. Suitable small interfering RNAs (siRNA) were designed with the Qiagen RNA interference designer tool for specific down-regulation of FTH1. The sequence used for FTH1 was 5′-[…]-3′ (S100300251) targeting the sequence following 5′-[…]-3′ and a negative control siRNA for FTH1 (5′-[…]-3′, (S103089212). Subconfluent cells were transfected with siRNA in Opti-MEM using the Oligofectamine™ reagent (Invitrogen) for 48 h. Then, cells were treated with OSM (100 ng/mL for 48 h) prior to protein or RNA extraction and flow cytometry analysis for markers as indicated."}},
  "note": "Where a SMILES comes first, the peptide text is derived from it. The star is where a group is joined. Cbz = O=C(OCc1ccccc1)*; CH2F = FC*",
  "data": [
    {"molecule": "TGF-31: cytokine that increases the CD44^high/CD24^Low/− population in HMLER cells", "values": [
      {"measurement": "percent of CD44^high/CD24^Low/− population", "setting": "[1]", "value": 21, "unit": "%"}
    ]},
    {"molecule": "CCCNC(=O)[C@H]1O[C@@H]1C(=O)N[C@H](C(=O)N1CCC[C@H]1C(=O)O)[C@@H](C)CC", "note": "[CA-074]", "values": [
      {"measurement": "ferritin degradation under AM5, cathepsin B inhibition", "setting": "[2]", "value": "degradation was prevented"}
    ]},
    {"molecule": "COC(=O)C[C@H](NC(=O)[C@H](C)NC(=O)[C@@H](NC(=O)OCc1ccccc1)C(C)C)C(=O)CF", "note": "[Z-VAD-FMK] (Cbz-Val-Ala-Asp(OMe)-CH2F)", "values": [
      {"measurement": "effect of inhibitor on cell death induced by Sal or AM5", "setting": "[3]", "value": "no effect on the cell death profiles"}
    ]},
    {"molecule": "CC(=O)N[C@@H](CS)C(=O)O", "note": "[NAC, N-acetyl-L-cysteine]", "values": [
      {"measurement": "effect of co-treatment on cell death induced by Sal and AM5", "setting": "[4]", "value": "partly prevented Sal and AM5 from killing these cells"}
    ]},
    {"molecule": "Transferrin: iron carrier protein taken up via transferrin receptor", "values": [
      {"measurement": "effect on TGF-beta-mediated induction of CD44^highCD24^Low/−", "setting": "[1]; with TGF beta", "value": "potentiates the TGF-beta-mediated induction"}
    ]},
    {"molecule": "CN1C(=O)C(Cc2c[nH]c3ccccc23)NC1=S", "note": "(centres unmarked) [necrostatin-1]", "values": [
      {"measurement": "effect of inhibitor on cell death induced by Sal or AM5", "setting": "[3]", "value": "no effect on the cell death profiles"}
    ]},
    {"molecule": "CC(=O)O[C@@]12CO[C@@H]1C[C@H](O)[C@@]1(C)C(=O)[C@H](O)C3=C(C)[C@@H](OC(=O)[C@H](O)[C@@H](NC(=O)OC(C)(C)C)c4ccccc4)C[C@@](O)([C@@H](OC(=O)c4ccccc4)[C@H]21)C3(C)C", "note": "[Doc, docetaxel, reference compound]", "values": [
      {"measurement": "tumor growth", "setting": "[5]", "value": "less effective"},
      {"measurement": "tumor-seeding capacity of tumor cells treated in vivo", "setting": "[6]", "value": "lower response than treatment with either AM5 or AM5+Doc"}
    ]},
    {"molecule": "CCOC(=O)c1ccc(NC2CCCCC2)c(N)c1", "note": "[ferrostatin-1]", "values": [
      {"measurement": "effect of inhibitor on cell death induced by Sal or AM5", "setting": "[3]", "value": "partially prevented"}
    ]},
    {"molecule": "B1", "values": [
      {"measurement": "ferritin protein level", "setting": "[7]", "value": "increase in ferritin protein level"},
      {"measurement": "EMT marker protein levels", "setting": "[7]; 72 h", "value": "increase of two EMT markers Fibronectin and Snail, and the decrease of E-cad protein levels"},
      {"measurement": "% of CD24^high population", "setting": "[8]", "value": "remains unchanged"},
      {"measurement": "% of CD44^high population", "setting": "[8]", "value": 76, "unit": "%"},
      {"measurement": "% of CD44^highCD24^Low/− CSC population", "setting": "[8]", "value": 4.84, "unit": "%"}
    ]}
  ]
}
